Experimental data reported in PMC10487437 (International Journal of Molecular Sciences, 2023).
“Also recorded” adds a separate entry of the source. Where two headings read alike, the source gives them in different places. Square brackets hold non-standard residues; d marks the D form. Peptide text beside a SMILES is read from it. * marks the point of attachment. Nle = CCCC[C@H](N)C(=O)O; Cbz = O=C(OCc1ccccc1)*

Experiments:
[1] = target: T1, 20S brain proteasome, caspase-like activity (Mus musculus, UniProt P70195+Q60692); assay: Inhibition of 20S brain proteasome hydrolysis of Z-LLE-AMC (caspase-like activity); assay type: biochemical; conditions: [20S] = 50 nM; for IC50: 20 mM Tris-HCl pH 7.5, 1 mM DTT, 1 mM EDTA, [Z-LLE-AMC] = 50 µM
T1 construct: from tissue; host or cells: mouse brain
Text: (§1) Figure 7 The dependence of 20S proteasome activity on marizomib concentration during hydrolysis of peptide fluorogenic substrates. (a) hydrolysis of model oligoglutamine substrates, Dabcyl-KQ5-PPDE-EDANS (Q5) or Dabcyl-KQ10-PPDE-EDANS (Q10). (b) hydrolysis of standard coumarine-modified peptide substrates. The experimental data are approximated by the function y = A1 + (A2 − A1)/(1 + 10^(LOGx0–x)p), where A1 and A2 are the minimum and maximum values of log10(Ci), respectively, LOGx0 is the logarithm of the EC50 (the concentration giving a response half-way between the upper and lower asymptotes), and p is the Hill coefficient.

[2] = target: T2, 20S brain proteasome, chymotrypsin-like activity (Mus musculus, UniProt O09061+O55234); assay: Inhibition of 20S brain proteasome hydrolysis of Suc-LLVY-AMC (chymotrypsin-like activity); assay type: biochemical; conditions: 20 mM Tris-HCl pH 7.5, 1 mM DTT, 1 mM EDTA; [20S] = 50 nM; [Suc-LLVY-AMC] = 50 µM
T2 construct: from tissue; host or cells: mouse brain
Text: as §1

[3] = test system: T3, 20S brain proteasome; assay: Inhibition of 20S brain proteasome hydrolysis of oligoglutamine-containing FRET substrates; assay type: biochemical, mouse; conditions: [20S] = 50 nM; for IC50: 20 mM Tris-HCl pH 7.5, 1 mM DTT, 1 mM EDTA
T3 construct: from tissue; host or cells: mouse brain
Text: as §1

[4] = target: T4, 20S brain proteasome, trypsin-like activity (Mus musculus, UniProt P70195+Q9R1P1); assay: Inhibition of 20S brain proteasome hydrolysis of Ac-RLR-AMC (trypsin-like activity); assay type: biochemical; conditions: [20S] = 50 nM; for IC50: 20 mM Tris-HCl pH 7.5, 1 mM DTT, 1 mM EDTA, [Ac-RLR-AMC] = 50 µM
T4 construct: from tissue; host or cells: mouse brain
Text: as §1

[5] = test system: T5, 20S proteasome from murine brain; assay: Specific peptidase activity of 20S proteasome with additives (Table S1); assay type: biochemical, mouse; conditions: 20S plus additive: 0.5 µM Bortezomib, 0.1 µM MG132, 0.02% SDS or 11S (1:2, mole:mole); 20S alone 2.37 ± 0.13; means ± SEM of three independent experiments run in duplicate
T5 construct: from tissue; host or cells: mouse brain
Text: Characterization of puriﬁed proteasomes
teasomes. […] To conﬁrm that
cathepsin B [48] (Table S1).
reaction mixture for both 20S and 26S.
Table S1. Peptidase activity of the samples of 20S and 26S proteasome from murine brain.
The molar ratio between the proteasome

[6] = test system: 26S+11S; assay: 26S proteasome with 11S regulator, both isolated from mouse brains, in Tris-HCl buffer pH = 7.5 with 5 mM ATP-MgCl2; conditions: 37 °C, up to 72 h
[7] = test system: 20S+11S; assay: 20S proteasome with 11S regulator, both isolated from mouse brains, in Tris-HCl buffer pH = 7.5; conditions: 37 °C, up to 72 h
[8] = test system: 20S proteasome; assay: 20S proteasome isolated from mouse brains, in 50 mM Tris-HCl, 1 mM EDTA, 1 mM DTT, 10% glycerol, pH = 7.5; conditions: 37 °C, up to 72 h
[9] = test system: 26S proteasome; assay: 26S proteasome isolated from mouse brains, in Tris-HCl buffer pH = 7.5 with 5 mM ATP-MgCl2; conditions: 37 °C, up to 72 h
[10] = fit of dose-response curve (Figure 7), substrate 50 µM
[11] = fit of dose-response curve (Figure 7)

Row | Compound | IC50 [1] [nM] | IC50 [2] [nM] | IC50 [4] [nM] | cleaved bond [6] | cleaved bond [7] | cleaved bond [8] | cleaved bond [9] | other results
1 | C[C@@]12OC(=O)[C@]1([C@@H](O)[C@@H]1C=CCCC1)NC(=O)[C@@H]2CCCl [Marizomib] | 610 ± 40 | 9.3 ± 1.5 | 111 ± 8 |  |  |  |  | Hill coefficient, inhibition of Z-LLE-AMC hydrolysis [1, 10]: (−1.1); Hill coefficient, inhibition of Dabcyl-KQ5 PPD-EDANS hydrolysis [3, 11]: (−0.69); Hill coefficient, inhibition of Dabcyl-KQ10 PPD-EDANS hydrolysis [3, 11]: (−0.39); IC50 ([3]; substrate Dabcyl-KQ5 PPD-EDANS, read-out: IC50 of Dabcyl-KQ5 PPD-EDANS hydrolysis by 20S brain proteasome): 0.323 ± 0.015 µM; IC50 ([3]; substrate Dabcyl-KQ10 PPD-EDANS, read-out: IC50 of Dabcyl-KQ10 PPD-EDANS hydrolysis by 20S brain proteasome): 0.48 ± 0.02 µM; Hill coefficient, inhibition of Ac-RLR-AMC hydrolysis [4, 10]: (−1.51)
2 | CC(C)C[C@@H](C=O)NC(=O)[C@H](CC(C)C)NC(=O)[C@H](CC(C)C)NC(=O)OCc1ccccc1 [Z-LLL-CHO (MG132)] (Cbz-Leu-Leu-Leu-aldehyde) | 155 ± 5 | 12 ± 3 | 2800 ± 300 |  |  |  |  | IC50 ([3]; substrate Dabcyl-KQ5 PPD-EDANS, n.d. = not detected, read-out: IC50 of Dabcyl-KQ5 PPD-EDANS hydrolysis by 20S brain proteasome): 50 ± 6 µM; IC50 ([3]; substrate Dabcyl-KQ10 PPD-EDANS, n.d. = not detected, read-out: IC50 of Dabcyl-KQ10 PPD-EDANS hydrolysis by 20S brain proteasome): 72 ± 8 µM; Specific peptidase activity using Suc-LLVY-AMC [5]: 0.093 ± 0.003 nM/min/µg
3 | CCCC[C@H](NC(=O)[C@@H]1CCCN1C(=O)OCc1ccccc1)C(=O)N[C@H](C=O)CC(=O)O [Z-P-nLeu-D-CHO] (Cbz-Pro-[Nle]-Asp-aldehyde) | 5100 ± 300 | 100000 ± 10000 | > 150000 |  |  |  |  | 
4 | Dabcyl-KQ5GD-EDANS |  |  |  | Q2-Q3, major; also recorded: Q4-Q5, major | Q2-Q3, major; also recorded: Q4-Q5, major | Q2-Q3, major; also recorded: Q4-Q5, major | Q2-Q3, major; also recorded: Q4-Q5, major | 
5 | Dabcyl-KQ10PPD-EDANS |  |  |  | Q2-Q3, major; also recorded: Q3-Q4, major | Q2-Q3, major; also recorded: Q3-Q4, major | Q3-Q4, major, 2 h; also recorded: Q2-Q3, major, 2 h | Q2-Q3, major; also recorded: Q3-Q4, major | 
